Source: ChEMBL document CHEMBL1201862, “PubChem BioAssay data set” (2004)
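Values below derive from 48-hour exposures of cells grown in 96-well plates, with endpoints linearly interpolated between the two concentrations bracketing the appropriate inhibition level. The concentration for 50% growth inhibition is given as GI50.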 Calls of active or inactive are those of the source. No stated cut-off is given here; in the data, active = GI50 up to about 1.1 µM and inactive = higher.

Experiments:
Assay in all cases: inhibition of tumour cell growth, NCI panel, 48 h
SK-MEL-2 = test system: SK-MEL-2
HL-60 = test system: HL-60
SF-268 = test system: SF-268
MOLT-4 = test system: MOLT-4
EKVX = test system: EKVX
UACC-257 = test system: UACC-257
SK-MEL-28 = test system: SK-MEL-28
OVCAR-4 = test system: OVCAR-4
Hs-578T = test system: Hs-578T
SF-295 = test system: SF-295
IGROV-1 = test system: IGROV-1
COLO 205 = test system: COLO 205
SF-539 = test system: SF-539
NCI-H23 = test system: NCI-H23
OVCAR-8 = test system: OVCAR-8
SNB-19 = test system: SNB-19
786-0 = test system: 786-0
HCC 2998 = test system: HCC 2998
K562 = test system: K562
PC-3 = test system: PC-3
OVCAR-5 = test system: OVCAR-5
RPMI-8226 = test system: RPMI-8226
NCI-H226 = test system: NCI-H226
SK-MEL-5 = test system: SK-MEL-5
U-251 = test system: U-251
HCT-15 = test system: HCT-15
ACHN = test system: ACHN
M14 = test system: M14
NCI/ADR-RES = test system: NCI/ADR-RES
MCF7 = test system: MCF7
DU-145 = test system: DU-145
MDA-N = test system: MDA-N
NCI-H522 = test system: NCI-H522
HT-29 = test system: HT-29
SR = test system: SR
Malme-3M = test system: Malme-3M
TK-10 = test system: TK-10
OVCAR-3 = test system: OVCAR-3
LOX IMVI = test system: LOX IMVI
CAKI-1 = test system: CAKI-1
KM12 = test system: KM12
NCI-H460 = test system: NCI-H460
A549 = test system: A549
MDA-MB-231 = test system: MDA-MB-231
T47D = test system: T47D
SW-620 = test system: SW-620
CCRF-CEM = test system: CCRF-CEM
BT-549 = test system: BT-549
SNB-75 = test system: SNB-75
SK-OV-3 = test system: SK-OV-3
UO-31 = test system: UO-31
SN12C = test system: SN12C
UACC-62 = test system: UACC-62
RXF 393 = test system: RXF 393
HOP-92 = test system: HOP-92
MDA-MB-435 = test system: MDA-MB-435
HOP-62 = test system: HOP-62
A498 = test system: A498
HCT-116 = test system: HCT-116

Measured: GI50

CC(=O)O[C@H]1CC[C@H]2[C@@H]3CCc4cc(O)c(I)cc4[C@H]3CC[C@]12C
10.5 µM: HCT-15
inactive: SK-MEL-2 19 µM | HL-60 5.21 µM | SF-268 13.8 µM | MOLT-4 4.73 µM | EKVX 13.1 µM | UACC-257 16.4 µM | SK-MEL-28 15.3 µM | OVCAR-4 13.6 µM | Hs-578T 14.9 µM | SF-295 15.3 µM | IGROV-1 16.9 µM | COLO 205 18.1 µM | SF-539 15.2 µM | NCI-H23 12.5 µM | OVCAR-8 18.3 µM | SNB-19 15.8 µM | 786-0 14.1 µM | HCC 2998 15 µM | K562 10.6 µM | PC-3 6.12 µM | OVCAR-5 18.2 µM | RPMI-8226 12.4 µM | NCI-H226 14.9 µM | SK-MEL-5 3.83 µM | U-251 14.7 µM | ACHN 14.9 µM | M14 13.6 µM | NCI/ADR-RES 17.6 µM | MCF7 17 µM | DU-145 14.8 µM | MDA-N 15.9 µM | NCI-H522 11.8 µM | HT-29 17.7 µM | SR 10.6 µM | Malme-3M 16.9 µM | TK-10 19.3 µM | OVCAR-3 16.6 µM | LOX IMVI 15.1 µM | CAKI-1 16.1 µM | KM12 12 µM | NCI-H460 12.9 µM | A549 15.3 µM | MDA-MB-231 3.64 µM | T47D 14.7 µM | SW-620 13 µM | CCRF-CEM > 10 µM | BT-549 14.8 µM | SNB-75 13.4 µM | SK-OV-3 15.7 µM | UO-31 14 µM

Cc1[nH]nc(C(=O)N/N=C/c2cccs2)c1/N=N\N(C)C
13.7 µM: HCT-15
inactive: SK-MEL-2 35.2 µM | SN12C 22 µM | UACC-62 14 µM | HL-60 1.99 µM | SF-268 9.4 µM | MOLT-4 3.75 µM | RXF 393 14.6 µM | HOP-92 16.3 µM | EKVX 39.4 µM | UACC-257 26.7 µM | MDA-MB-435 23.9 µM | OVCAR-4 10.5 µM | Hs-578T 34.5 µM | SF-295 15.2 µM | IGROV-1 11.1 µM | COLO 205 11.9 µM | SF-539 13.3 µM | NCI-H23 12.6 µM | OVCAR-8 11.6 µM | SNB-19 8.38 µM | HOP-62 17 µM | 786-0 13.6 µM | A498 23.4 µM | HCC 2998 5.06 µM | K562 3.9 µM | PC-3 20.1 µM | OVCAR-5 29.7 µM | RPMI-8226 18.3 µM | NCI-H226 23.1 µM | SK-MEL-5 19.6 µM | U-251 10.3 µM | ACHN 2.96 µM | M14 24.7 µM | NCI/ADR-RES 21.1 µM | MCF7 3.94 µM | DU-145 9.53 µM | NCI-H522 11.2 µM | HT-29 3.31 µM | Malme-3M 21.4 µM | TK-10 23.5 µM | OVCAR-3 22.4 µM | LOX IMVI 4.3 µM | CAKI-1 5.78 µM | KM12 24.1 µM | NCI-H460 3.43 µM | A549 10.5 µM | MDA-MB-231 23.1 µM | T47D 9.12 µM | SW-620 15.3 µM | CCRF-CEM 2.52 µM | HCT-116 11 µM | BT-549 11.9 µM | SNB-75 2.89 µM | SK-OV-3 19.8 µM | UO-31 2.49 µM

Cc1ccc(S(=O)(=O)NC(=O)NC(CCCCN)C(=O)O)cc1 (configuration not stated)
inactive: SK-MEL-2 > 100 µM | SN12C > 100 µM | UACC-62 > 100 µM | HL-60 > 100 µM | SF-268 > 100 µM | MOLT-4 > 100 µM | RXF 393 > 100 µM | HOP-92 70 µM | UACC-257 > 100 µM | SK-MEL-28 > 100 µM | OVCAR-4 > 100 µM | Hs-578T > 100 µM | SF-295 > 100 µM | IGROV-1 > 100 µM | COLO 205 > 100 µM | SF-539 > 100 µM | NCI-H23 > 100 µM | OVCAR-8 > 100 µM | SNB-19 > 100 µM | HOP-62 > 100 µM | 786-0 > 100 µM | K562 > 100 µM | PC-3 > 100 µM | RPMI-8226 > 100 µM | SK-MEL-5 > 100 µM | U-251 > 100 µM | ACHN > 100 µM | M14 > 100 µM | NCI/ADR-RES > 100 µM | MCF7 > 100 µM | DU-145 > 100 µM | MDA-N > 100 µM | NCI-H522 > 100 µM | SR > 100 µM | Malme-3M > 100 µM | TK-10 > 100 µM | LOX IMVI > 100 µM | KM12 > 100 µM | NCI-H460 > 100 µM | A549 > 100 µM | MDA-MB-231 > 100 µM | T47D > 100 µM | SW-620 > 100 µM | CCRF-CEM > 100 µM | HCT-116 > 100 µM | BT-549 > 100 µM | SNB-75 > 100 µM | SK-OV-3 > 100 µM | UO-31 > 100 µM
> 100 µM: HCT-15
